In patent US6903100B2, “USE OF REGULARLY SCHEDULED HIGH DOSE INTRAVENOUS METHOTREXATE THERAPY, WITH INTERIM ADMINISTRATION OF IMMUNOMODULATORY AGENTS, TO TREAT MULTIPLE SCLEROSIS AND OTHER DISEASES OF THE CENTRAL NERVOUS SYSTEM” (MidAmerica Neuroscience Research Foundation, priority 2001, dated 2005):
Where “and” joins values, the source holds several entries; their conditions need not be identical. Equal values may be shown once.

How the values were obtained:
[1] = system: relapsing progressive MS; assay: MSFC clinical outcome (9-HPT, 25-ft walk, PASAT) in patients treated with bimonthly high dose IV methotrexate; format: in vivo; set-up: 9-HPT change / 25-ft walk change: unit not given here
Protocol: Ten patients of relapsing progressive MS were treated with bimonthly high dose intravenous methotrexate with leucovorin rescue, combined with interim treatment with low dose immunomodulatory agents.
(§1) Methotrexate treatments were given every 2 months for up to 6 treatments. Methotrexate was administered by IV at a dosage of 1 g/m^2 for the first three treatments. […] The patients were then switched to doses of 2 g/m^2 of methotrexate for three subsequent treatments. Methotrexate was given after hydration and alkalization, with urine pH 7.0 or greater. The infusion was followed by continued hydration for several hours.
(§2) Each methotrexate treatment was followed by intravenous leucovorin rescue with 50 mg leucovorin eight hours after the start of the methotrexate infusion. Oral leucovorin (25 mg) was administered every 6 hours for a total of 12 doses after intravenous leucovorin rescue, and the serum methotrexate level measured. If necessary oral leucovorin was continued until the serum level reached 0.05 μM.
At the time of study entry, all patients were being treated, with interferon (AVONEX® or BETA-SERON®), glatiramer acetate (COPAXONE®), or oral methotrexate. These medications were continued between treatments.
The clinical outcome was determined by MSFC scores at baseline and at two months follow up visits after each treatment. The MSFC is a clinical outcome measure, which measures three clinical functions involving hand dexterity, walking, and cognition. Two tailed paired t-test was used to compare the results of MSFC.

[2] = Methotrexate in cerebrospinal fluid (CSF) after infusion; format: in vivo; conditions: five CSF samples, several patients and time points after infusion of 2 g/m^2
Protocol: Five samples of cerebrospinal fluid (CSF) were analyzed for methotrexate, representing several patients and several time points after methotrexate infusion of 2 g/m^2.

[3] = cited from earlier work; for crossing of the blood brain barrier (BBB) into the CNS: in vivo
[4] = system: MS; CNS lymphomas; conditions: cited from earlier work
[5] = Safety of high dose IV methotrexate with leucovorin rescue in MS patients; format: in vivo
Protocol: as §1, §2

[6] = after one year of treatment, ten patients
[7] = all patients together, two tailed paired t-test
[8] = all patients together, two tailed paired t-test, p<0.05
[9] = individual patient, change from baseline after one year, IV 1 g/m^2 x3 then 2 g/m^2 x3, every 2 months, leucovorin rescue, interim agent

SMILES: CN(Cc1cnc2nc(N)nc(N)c2n1)c1ccc(C(=O)N[C@@H](CCC(=O)O)C(=O)O)cc1 [Methotrexate, methotrexate]
- MSFC scores of some of the patients ([1]; after 3 treatments at 1 g/m^2): improved significantly
- maximum increase of overall MSFC [1, 6]: +1.28
- minimum increase of overall MSFC [1, 6]: +0.08
- clinical assessment with MSFC scores ([1]; after treatment): significant improvement
- improvement in the 25-ft walk test [1, 7]: not significant
- improvement in the PASAT test [1, 7]: not significant
- mean nine-hole peg score after treatment [1, 8]: significant improvement
- mean overall MSFC score after treatment [1, 8]: significant improvement
- 9-HPT change [1, 9]: +0.45 and +0.86 and −0.31 and +0.20 and +0.83 and +0.30 and −0.10 and +0.80 and +1.07 and +0.70
- 25-ft walk change [1, 9]: +0.04 and 0.00 and −0.01 (2×) and +0.08 and +0.14 and −0.04 and −0.07 and −0.22 and +0.53
- MSFC change [1, 9]: +0.38 and +0.31 and +0.25 and +0.18 and +0.13 and +0.09 and +0.08 (2×) and +1.28 and +0.56
- PASAT change [1, 9]: +0.66 and +0.08 and +1.08 and +0.25 and −0.58 and 0.00 and +0.41 and −0.33 and +2.24 and +0.99
- PASAT (cognitive function): patients improved ([1]; of 10): 6 patients
- PASAT (cognitive function): patients turned worse ([1]; of 10): 2
- PASAT (cognitive function): patients unchanged ([1]; of 10): 2
- nine-hole peg test (arm function): patients improved ([1]; of 10): 8 patients
- nine-hole peg test (arm function): patients unchanged ([1]; of 10): 1
- nine-hole peg test (arm function): patients with minor worsening ([1]; of 10): 1 patient
- timed 25-ft walk (leg function): patients unchanged ([1]; of 10): 7
- timed 25-ft walk (leg function): patients with improvement ([1]; of 10): 2 patients
- timed 25-ft walk (leg function): patients with slight worsening ([1]; of 10): 1
- patients improved on MSFC ([1]; of 10, after one year, change >+0.1): seven
- patients unchanged on MSFC ([1]; of 10, after one year, change less than 0.1): three
- deterioration of symptoms of progressive MS ([1]; periodic high dose with leucovorin rescue and interim treatments): halted the deterioration of the symptoms in every patient treated
- crossing of the BBB (methotrexate in CSF) [2]: cross the BBB in cytotoxic amounts
- serum level relative to crossing the BBB ([3]; administered orally): not sufficient to cross the BBB in cytotoxic amounts
- toxicity of high dose in CNS lymphoma trials ([4]; in vivo, iv): low toxicity
- toxicity of high dose sporadically administered ([4]; in vivo, iv): no significant toxicity
- toxicity of low-dose oral treatment in progressive MS ([4]; in vivo, po): minimal toxicity
- upper extremity strength in MS patients ([4]; oral treatments): mild improvement
- tolerability ([5]; IV 1 g/m^2, first three treatments): well tolerated
- renal toxicity ([5]; after one treatment, 2-week follow up creatinine clearance within acceptable limits): one patient experienced Grade I renal toxicity
- alopecia ([5]; ten patients): No alopecia was noted
- hematological toxicity ([5]; ten patients, up to 6 treatments): No hematological toxicity was observed
- nausea ([5]; ten patients, easily treated with Zofran): Five patients experienced some nausea

SMILES: O=C1c2c(O)ccc(O)c2C(=O)c2c(NCCNCCO)ccc(NCCNCCO)c21 [mitoxantrone]
- crossing of the blood brain barrier (BBB) into the CNS [3]: do not cross the blood brain barrier
- efficacy against the progression of MS ([4]; in vivo): some efficacy
- toxicity limiting use ([4]; in vivo): limited lifetime use due to toxicity

SMILES: Nc1nc2c(c(=O)[nH]1)N(C=O)C(CNc1ccc(C(=O)N[C@@H](CCC(=O)O)C(=O)O)cc1)CN2 (some centres unmarked) [leucovorin]
- crossing of the blood brain barrier (BBB) into the CNS [3]: does not penetrate the BBB

SMILES: O=P1(N(CCCl)CCCl)NCCCO1 (centres unmarked) [cyclophosphamide]
- crossing of the blood brain barrier (BBB) into the CNS [3]: do not cross the blood brain barrier
- efficacy against the progression of MS ([4]; in vivo): some efficacy
